Assay results: US20050096323A1, “Diketopiperazine derivatives to inhibit thrombin” (NovoScience Pharma Inc., priority 1999, published 2005)
Where a name gives a salt, the structure may show the parent alone.

What was measured:
thrombin = biological target: T1, thrombin (Homo sapiens, UniProt P00734); test: Thrombin inhibition constant (Ki), fluorogenic substrate assay; assay type: biochemical; settings: for Cycloargatroban vs. Argatroban, Ki(Thrombin): thrombin inhibition activity relative to argatroban
T1 construct: purchased Sigma

trypsin = biological target: T2, trypsin (Bos taurus, UniProt P00760); test: Trypsin inhibition constant (Ki), fluorogenic substrate assay; assay type: biochemical
T2 sequence (P00760 24-246): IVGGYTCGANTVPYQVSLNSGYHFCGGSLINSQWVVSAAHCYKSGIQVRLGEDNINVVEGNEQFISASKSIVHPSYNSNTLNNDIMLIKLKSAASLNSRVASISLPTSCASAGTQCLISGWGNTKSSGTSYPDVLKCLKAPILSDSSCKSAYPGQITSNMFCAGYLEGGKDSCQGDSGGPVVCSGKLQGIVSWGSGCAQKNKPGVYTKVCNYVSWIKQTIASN
Procedure: (§1) The activity and selectivity of the present invention can be identified by determination of the inhibition constant (Ki) for serine proteases such thrombin and trypsin and fibrinolytic enzymes such as urokinase, plasmin and tissue plasminogen activator (tPA). All of enzymes are purchased from Sigma. The general assay conditions are as follows. The fluorogenic substrates are dissolved in DMSO and diluted using assay buffer containing 50 mM Tris.HCl (pH 7.8 at 25° C.), 0.1 M NaCl and 0.1% polyethylene glycol 8000 (PEG 8000). […] The assays were conducted using Hitachi F2500 spectrophotometer under ambient temperature and at the excitation and emission wavelengths of 383 nm and 455 nm, respectively. The typical progressive data of the enzymatic assays are shown in FIGS. 1-3, and the determination of inhibition constant (Ki) is shown in FIG. 4.

urokinase = biological target: T3, urokinase (Homo sapiens, UniProt P00749); test: Urokinase inhibition constant (Ki), fluorogenic substrate assay; assay type: biochemical
T3 construct: purchased Sigma
Procedure: as §1

plasmin = biological target: T4, plasmin (Homo sapiens, UniProt P00747); test: Plasmin inhibition constant (Ki), fluorogenic substrate assay; assay type: biochemical
T4 construct: purchased Sigma
Procedure: as §1

[1] = tested on: pooled normal human plasma; test: Ex vivo coagulation assay (APTT prolongation); assay type: biochemical; settings: normal citrated human plasma
Procedure: Frozen-pooled human plasma was obtained from Sigma. Measurement of APTT was made using the ELECTRA™ 800 automated coagulometer (Medical Laboratory Automation Inc.) using the automated APTT reagent (SIGMA) as the initiator of clotting according to the manufacture's instructions. The assay was conducted by making a series of dilution of the reference and test compounds in rapidly thawed plasma (compound: plasma=0.1 ml:0.9 ml) followed by adding the mixed solution to the wells of the assay carousel. Tris buffers (pH 7.8 at 25° C.) were used through the entire assay.

[2] = Acute toxicity, intravenous injection, determination of LD50; assay type: in vivo, mice; settings: both sexes, ICR, mouse, in vivo, iv, ICR mice, single i.v., Bliss method
Description: (§2) 1) Determination of LD50 (Tables III and IV): ICR mice, 18 ˜20 g, were divided into five groups, with 10 animals in each group (half male and half female). The ratio of doses between groups was 1:0.85.

ICR mice = test: as above; assay type: in vivo; settings: for Number of deaths: 10 mice
Description: as §2

T4 sequence (P00747 581-810 limits assumed, species assumed): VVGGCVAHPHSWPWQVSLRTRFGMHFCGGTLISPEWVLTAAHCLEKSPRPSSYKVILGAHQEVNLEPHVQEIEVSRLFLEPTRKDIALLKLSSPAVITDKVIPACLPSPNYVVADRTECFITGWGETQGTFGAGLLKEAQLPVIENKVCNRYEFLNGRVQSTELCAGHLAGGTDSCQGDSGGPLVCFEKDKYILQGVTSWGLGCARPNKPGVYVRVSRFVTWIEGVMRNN
T4 sequence (P00747 97-580 partner limits assumed, species assumed): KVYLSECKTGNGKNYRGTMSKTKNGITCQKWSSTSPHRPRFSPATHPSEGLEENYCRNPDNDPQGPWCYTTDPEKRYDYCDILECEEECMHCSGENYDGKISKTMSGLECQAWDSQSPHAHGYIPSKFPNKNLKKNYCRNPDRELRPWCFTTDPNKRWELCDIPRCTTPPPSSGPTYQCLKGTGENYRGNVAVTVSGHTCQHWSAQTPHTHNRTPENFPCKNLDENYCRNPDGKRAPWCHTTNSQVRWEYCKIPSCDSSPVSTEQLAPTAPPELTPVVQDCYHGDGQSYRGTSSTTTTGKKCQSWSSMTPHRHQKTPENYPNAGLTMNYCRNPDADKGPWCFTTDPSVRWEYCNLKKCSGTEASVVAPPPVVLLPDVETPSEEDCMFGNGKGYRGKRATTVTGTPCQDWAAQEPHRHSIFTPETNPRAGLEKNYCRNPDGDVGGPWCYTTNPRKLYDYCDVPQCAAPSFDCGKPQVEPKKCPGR

## CC1CNc2c(cccc2S(=O)(=O)N2C(=O)C3CC(C)CCN3C(=O)C2CCCNC(=N)N)C1 [NPI1999, (3S,6R,8R)-Bicyclo[4.4.0]-1,4-diaza-3-(3-guanidinopropyl)-4-N-(1,2,3,4-tetrahydro-3-methyl-8-quinolinesulfonyl)-8-methyl-2,5-decanedione, hydrochoride salt]
thrombin; Table II, method of example 9
  Ki: 0.02 to 0.04 µM
thrombin; substrate Tos-Gly-Pro-Arg-AMC, pH 7.8
  Ki: 0.04 µM
thrombin; listed as Cycloargatroban
  Cycloargatroban vs. Argatroban, Ki(Thrombin): −2.1 fold
thrombin; listed as cycloargatroban
  Cycloargatroban vs. Argatroban, Ki(Thrombin): 2.1 fold
trypsin; listed as Cycloargatroban
  Cycloargatroban [Ki (Enzyme)/Ki (Thrombin)] vs. Argatroban [Ki (Enzyme)/Ki (Thrombin)]: +12 fold
trypsin; listed as cycloargatroban
  Cycloargatroban [Ki (Enzyme)/Ki (Thrombin)] vs. Argatroban [Ki (Enzyme)/Ki (Thrombin)]: 12 fold
urokinase; enzyme = urokinase
  Cycloargatroban [Ki (Enzyme)/Ki (Thrombin)] vs. Argatroban [Ki (Enzyme)/Ki (Thrombin)]: −0.14 fold
urokinase; substrate N-Cbz-Gly-Gly-Arg-AMC
  Ki: 295 µM
plasmin; enzyme = plasmin
  Cycloargatroban [Ki (Enzyme)/Ki (Thrombin)] vs. Argatroban [Ki (Enzyme)/Ki (Thrombin)]: −0.67 fold
plasmin; substrate D-Ala-Leu-Lys-AMC
  Ki: 528 µM
[1]
  effect on APTT compared with argatroban: less strong effect
[1]; FIG. 5
  effect on activated partial thromboplastin time (APTT): prolonged the APTT in a dose dependent manner
[2]
  95% confidence interval of LD50 at 2 weeks: 10 to 11.9 mg/kg
[2]; observed 2 weeks
  LD50 at 2 weeks: 10.9 mg/kg
ICR mice; i.v. 7.83 mg/kg
  Death rate (%): 0%
  Number of deaths: 0
ICR mice; i.v. 7.83 mg/kg, ♀, 4-13 days after administration
  Number of death: 0
ICR mice; i.v. 7.83 mg/kg, ♀, 1 day after administration
  Number of death: 0
ICR mice; i.v. 7.83 mg/kg, ♀, 2 days after administration
  Number of death: 0
ICR mice; i.v. 7.83 mg/kg, ♀, 3 days after administration
  Number of death: 0
ICR mice; i.v. 7.83 mg/kg, ♀, day of administration
  Number of death: 0
ICR mice; i.v. 7.83 mg/kg, ♂, 4-13 days after administration
  Number of death: 0
ICR mice; i.v. 7.83 mg/kg, ♂, 1 day after administration
  Number of death: 0
ICR mice; i.v. 7.83 mg/kg, ♂, 2 days after administration
  Number of death: 0
ICR mice; i.v. 7.83 mg/kg, ♂, 3 days after administration
  Number of death: 0
ICR mice; i.v. 7.83 mg/kg, ♂, day of administration
  Number of death: 0
ICR mice; i.v. 9.21 mg/kg
  Death rate (%): 30%
  Number of deaths: 3
ICR mice; i.v. 9.21 mg/kg, ♀, 4-13 days after administration
  Number of death: 0
ICR mice; i.v. 9.21 mg/kg, ♀, 1 day after administration
  Number of death: 0
ICR mice; i.v. 9.21 mg/kg, ♀, 2 days after administration
  Number of death: 0
ICR mice; i.v. 9.21 mg/kg, ♀, 3 days after administration
  Number of death: 0
ICR mice; i.v. 9.21 mg/kg, ♀, day of administration
  Number of death: 2
ICR mice; i.v. 9.21 mg/kg, ♂, 4-13 days after administration
  Number of death: 0
ICR mice; i.v. 9.21 mg/kg, ♂, 1 day after administration
  Number of death: 0
ICR mice; i.v. 9.21 mg/kg, ♂, 2 days after administration
  Number of death: 0
ICR mice; i.v. 9.21 mg/kg, ♂, 3 days after administration
  Number of death: 0
ICR mice; i.v. 9.21 mg/kg, ♂, day of administration
  Number of death: 1
ICR mice; i.v. 10.84 mg/kg
  Death rate (%): 50%
  Number of deaths: 5
ICR mice; i.v. 10.84 mg/kg, ♀, 4-13 days after administration
  Number of death: 0
ICR mice; i.v. 10.84 mg/kg, ♀, 1 day after administration
  Number of death: 0
ICR mice; i.v. 10.84 mg/kg, ♀, 2 days after administration
  Number of death: 0
ICR mice; i.v. 10.84 mg/kg, ♀, 3 days after administration
  Number of death: 0
ICR mice; i.v. 10.84 mg/kg, ♀, day of administration
  Number of death: 3
ICR mice; i.v. 10.84 mg/kg, ♂, 4-13 days after administration
  Number of death: 0
ICR mice; i.v. 10.84 mg/kg, ♂, 1 day after administration
  Number of death: 0
ICR mice; i.v. 10.84 mg/kg, ♂, 2 days after administration
  Number of death: 0
ICR mice; i.v. 10.84 mg/kg, ♂, 3 days after administration
  Number of death: 0
ICR mice; i.v. 10.84 mg/kg, ♂, day of administration
  Number of death: 2
ICR mice; i.v. 12.75 mg/kg
  Death rate (%): 80%
  Number of deaths: 8
ICR mice; i.v. 12.75 mg/kg, ♀, 4-13 days after administration
  Number of death: 0
ICR mice; i.v. 12.75 mg/kg, ♀, 1 day after administration
  Number of death: 0
ICR mice; i.v. 12.75 mg/kg, ♀, 2 days after administration
  Number of death: 0
ICR mice; i.v. 12.75 mg/kg, ♀, 3 days after administration
  Number of death: 0
ICR mice; i.v. 12.75 mg/kg, ♀, day of administration
  Number of death: 4
